Experimental data reported in patent US9061984B2 (University of Louisville Research Foundation, Inc., priority 2008, dated 2015).
Values after ≈ are worked out from the molar mass of the structure shown. Values joined by “and” are separate entries in the source; they are usually repeats but may differ in a detail not shown here. Equal values may be shown once. Read-outs that look alike come from different tables or passages of the source.

Tests used:
peritoneal macrophages = assay: Toxicity to peritoneal macrophages (Trypan Blue count); assay type: cell-based, BALB/C mouse
[1] = system: axenic amastigotes of L. amazonensis (strain MHOM/BR/76/LTB-012); assay: microbe, parasite or virus in culture; conditions: Leishmania amazonensis, 72 h, read-out: IC50 L. amazonensis
L. peruviana LCA08 = assay: Activity against macrophages infected with Leishmania amastigotes; conditions: 48 h, read-out: IC50 L. peruviana LCA08
Method: (§3) A cloned line of Leishmania amazonensis(strain MHOM/BR/76/LTB-012) was used in all experiments. Axenically grown amastigote forms of L. amazonensis were maintained by weekly subpassages in MAA/20 medium (Sereno and Lemesre, Antimicrobial Agents and Chemotherapy 41, 972-976 (1997)) at 32±1° C. in 25 cm^2 tissue culture flasks. L. peruviana (strain MHOM/PE/LCA08) and L. braziliensis (strainMHOM/PE/PER006) were maintained in the promastigote stage in a biphasic medium (blood agar with 0.89% NaCl, pH 7.4) at 24° C., with sub-passage every 3 to 4 days. Promastigotes (5×10^6 parasites) were then transferred to 25 cm2 tissue culture flasks containing 5 ml of M199 medium supplemented with 10% foetal bovine serum (FBS), pH 7.4. After 4 days, exponential phase promastigotes were centrifuged for 10 minutes at 1500 g and 4° C. The supernatant was discarded and replaced by fresh M199 medium supplemented with 20% FBS, pH 5.5. Axenic amastigotes transformation was then induced by increasing the temperature to 34° C. and incubating for 96 h (Teixeira et al., Parasitology Research 88, 963-968 (2002)).
(§4) Extracted cells were immediately deposited on sterile 4×4 mm cover glasses and placed in each well of a 96-well plate. Plates were incubated for 24 h at 37° C., 5% CO2 to allow cell adhesion (Castillo et al, Journal of Ethnopharmacology 112, 410-414 (2007)). Pre-warmed complete M199 medium was used twice to remove non-adherent cells. A neutral red method (Fautz et al., Mutation Research 253, 173-179 (1991)) was employed to determine cell concentration. Approximately 7×10^4 viable cells were deposited in each well for adhesion.
(§5) Infection of macrophages by amastigotes was determined as follows. […] Twelve hours after infection, a solution of the compounds to be tested was added to the cultures at various concentrations and maintained at 37° C. in 5% CO2 for a further forty-eight hours more. The plates were fixed with methanol and stained with 10% Giemsa stain. The percentage of infected macrophages was determined microscopically at 100 times magnification. The number of intracellular amastigotes was determined in 300 cells. Following Delorenzi et al. Antimicrobial Agents and Chemotherapy, 45, 1349-1354 (2001)) the percentage of infection rate (% IR) of each culture was calculated as follows: % IR=100−(infection rate of the treated culture/infection rate of the untreated culture)×100.
(§6) All experiments were performed in triplicate. ANOVA was used to test for statistical significance of differences (Epi-Info, Statview student program). The total parasite burden was calculated as a mean number of amastigotes per cells multiplied by the number of infected macrophages.

L. amazonensis = conditions: for cutaneous toxicity: at the tested doses (5 mg/kg/day intralesional); for Lesion diameter / Reduction of parasite burden After 4 weeks / Reduction of parasite burden After 7 weeks: compounds 5 mg/kg/day, Glucantime 33 mg/kg/day, intralesional
L. braziliensis PER006 = assay: Activity against macrophages infected with Leishmania amastigotes; conditions: 48 h, read-out: IC50 L. braziliensis PER006
L. amazonensis Lma CL1 = assay: as above
Method: as §3, §4, §5, §6

[2] = system: Trypanosoma cruzi (Tulahuen C4); assay: In vitro anti-T. cruzi activity (β-galactosidase CPRG colorimetric assay in VERO monolayer); assay type: cell-based; conditions: for inhibition at 10 µg/mL / IC50: Trypanosoma cruzi, TULAHUEN, Vero; for inhibition at 10 µg/mL: 120 h, read-out: T. cruzi Inhib. (%); for inhibition at 10 µg/mL / T. cruzi Inhib. (%): 10 μg/mL of each compound, 120 hours
[3] = Cytotoxicity on VERO cells (MTT), anti-T. cruzi study; conditions: African green monkey, VERO cells, IC50 - VERO Cytotoxicity, Table 2
VERO cells = assay: as above; conditions: for IC50: Chlorocebus sabaeus, Vero, read-out: IC50 VERO, Table 3; for IC50 - VERO Cytotoxicity: Table 2
3T3 cells = assay: Cell growth inhibition bioassay (sulforhodamine B); assay type: cell-based, mouse; conditions: Mus musculus, NIH3T3; 48 h, SRB; read-out: GI50 in indicated cell line: 3T3
Method in brief: (§1)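 Cells were exposed to compound alongside matched solvent controls, then stained with sulforhodamine B. Percent growth inhibition was calculated from dye absorbance against the control.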

K562 cells = assay: Cell growth inhibition bioassay (sulforhodamine B); assay type: cell-based, human; conditions: Homo sapiens, K562; 48 h, SRB; read-out: GI50 in indicated cell line: K562
Method in brief: as §1

MCF-7 cells = assay: Cell growth inhibition bioassay (sulforhodamine B); assay type: cell-based, human; conditions: Homo sapiens, MCF7; 48 h, SRB; read-out: GI50 in indicated cell line: MCF-7
Method in brief: (§2)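 SRB colorimetric read-out; % growth inhibition vs solvent control. Human lines: MCF-7 (breast adenocarcinoma), DU145 (prostate carcinoma), PC3 (prostate adenocarcinoma), H460 (large cell lung cancer).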

H460 cells = assay: Cell growth inhibition bioassay (sulforhodamine B); assay type: cell-based, human; conditions: Homo sapiens, NCI-H460; 48 h, SRB; read-out: GI50 in indicated cell line: H460
Method in brief: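 Growth inhibition was measured colorimetrically with sulforhodamine B staining and expressed as percent inhibition relative to solvent-treated controls. Cell lines were human: MCF-7 breast adenocarcinoma, DU145 and PC3 prostate carcinoma/adenocarcinoma, H460 large cell lung cancer.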

HT-29 cells = assay: Cell growth inhibition bioassay (sulforhodamine B); assay type: cell-based, human; conditions: Homo sapiens, HT-29; 48 h, SRB; read-out: GI50 in indicated cell line: HT-29
Method in brief: as §1

DU145 cells = assay: Cell growth inhibition bioassay (sulforhodamine B); assay type: cell-based, human; conditions: Homo sapiens, DU-145; 48 h, SRB; read-out: GI50 in indicated cell line: DU145
Method in brief: as §2

M-14 cells = assay: Cell growth inhibition bioassay (sulforhodamine B); assay type: cell-based, human; conditions: Homo sapiens, M14; 48 h, SRB; read-out: GI50 in indicated cell line: M-14
Method in brief: as §1

PC3 cells = assay: Cell growth inhibition bioassay (sulforhodamine B); assay type: cell-based; conditions: Homo sapiens, PC-3; 48 h, SRB; read-out: GI50 in indicated cell line: PC3
Method: The cytotoxicity of compounds was assayed as follows. […] Appropriate solvent controls were tested for comparison. The percent inhibition of cell growth relative to the control was evaluated colorimetrically using a sulforhodamine B dye by comparison to the control. The calorimetric procedure followed that published in Skehan et al., J. Nat. Cancer Inst., […], pp. 1107-1112 (1990) and Boyd & Paull, Drug Dev. Res., Vol. 34, pp. 91-109 (1995). […] The cell lines are: 3T3 cells are BALB/3T3 clone A31 embryonic mouse fibroblast cells; H460 cells are human large cell lung cancer cells; DU145 cells are human prostate carcinoma cells; MCF-7 cells are human breast adenocarcinoma cells; M-14 cells are human melanoma cells; HT-29 cells are human colon adenocarcinoma cells; PC3 cells are human prostate adenocarcinoma cells; K562 cells are human chronic myelogenous leukemia cells; and VERO cells are African Green Monkey kidney epithelial cells.

[4] = system: axenic amastigotes of L. amazonensis (strain MHOM/BR/76/LTB-012)
[5] = Mus musculus, Peritoneal macrophage, 48 h, Table 7, read-out: IC50 Macrophage
[6] = Leishmania peruviana, Macrophage
[7] = Leishmania braziliensis, Macrophage
[8] = Leishmania amazonensis, Macrophage, 48 h, read-out: IC50 L. amazonensis Lma CL1
[9] = Table 2, read-out: IC50 - T. cruzi
[10] = Table 3, read-out: IC50 T. cruzi

| Compound | IC50 (peritoneal macrophages; [5]) [µM] | IC50 [1] [µM] | IC50 (L. peruviana LCA08; [6]) [µM] | Lesion diameter (L. amazonensis) [mm] | Reduction of parasite burden After 4 weeks (L. amazonensis) [%] | IC50 (L. braziliensis PER006; [7]) [µM] | IC50 (L. amazonensis Lma CL1; [8]) [µM] | inhibition at 10 µg/mL [2] [%] | IC50 [2, 9] [µg/mL] | IC50 [2, 10] [µM] | IC50 [3] [µg/mL] | T. cruzi Inhib. (%) [2] | GI50 (3T3 cells) [µM] | GI50 (K562 cells) [µM] | GI50 (MCF-7 cells) [µM] | GI50 (H460 cells) [µM] | GI50 (HT-29 cells) [µM] | GI50 (DU145 cells) [µM] | GI50 (M-14 cells) [µM] | GI50 (PC3 cells) [µM] | other results |
| --- | --- | --- | --- | --- | --- | --- | --- | --- | --- | --- | --- | --- | --- | --- | --- | --- | --- | --- | --- | --- | --- |
| COCOc1cc(O)c(C(=O)/C=C/c2cc(OC)c(OC)c(OC)c2)c(OC)c1 [Compound I-46] | 132 | 6.2 | 19.3 | 5.1 | 74 | 13.1 | 28.7 |  |  |  |  |  |  |  |  |  |  |  |  |  | cutaneous toxicity (L. amazonensis): did not exhibit any cutaneous toxicity; Reduction of parasite burden After 7 weeks (L. amazonensis): 41% |
| COCOc1cc(OC)c(C(=O)/C=C/c2ccc(OC)cc2)c(OCOC)c1 [Compound I-44] | > 250 | 1.3 | 111 | 4.7 | 11 | 5.15 | 12.1 |  |  |  |  |  |  |  |  |  |  |  |  |  | Reduction of parasite burden After 7 weeks (L. amazonensis): 17% |
| C=CCOc1cc(OC)c(C(=O)/C=C/c2ccccn2)c(OCC=C)c1 [Compound I-27, (2E)-1-[2-Methoxy-4,6-bis(2-propenyloxy)phenyl]-3-(2-pyridinyl)-2-propen-1-one] | 12.5 | 1.1 | 4 | 4.1 | −4 | 1.4 | 0.9 | 77.2 | 0.67 | 1.9 | 1 (≈ 2.85 µM) |  |  |  |  |  |  |  |  |  | Reduction of parasite burden (column After 7 weeks, analyzed after 6 weeks treatment) (L. amazonensis; 5 mg/kg/day intralesional, after 6 weeks treatment (footnote d)): 25^d %; IC50 (VERO cells): 2.8 µM; IC50 (L. amazonensis Lma CL1; Leishmania amazonensis, Macrophage, read-out: bioactivities (IC50) in macrophage-infected model): 0.9 to 4 µM |
| COc1ccc(/C=C/C(=O)c2c(O)cc(OC)cc2OC)cc1 [Compound I-01, (2E)-1-(2-Hydroxy-4,6-dimethoxyphenyl)-3-(4-methoxyphenyl)-2-propen-1-one] |  | 17.2 |  |  |  |  |  | 29 |  | > 25 |  | 41.36% | 17.2 | 20.5 | 17.5 | 24.1 | 45.3 | 30.8 | 22.5 | 15.2 |  |
| C=CCOc1cc(OC)c(C(=O)/C=C/c2ccc3c(c2)OCO3)c(OCC=C)c1 [Compound I-19, (2E)-3-(1,3-Benzodioxol-5-yl)-1-[2-methoxy-4,6-bis(2-propenyloxy)phenyl]-2-propen-1-one] |  | 6.6 |  |  |  |  |  | 74.1 | 7.33 | 13.6 | 49 (≈ 124 µM) | 58.82% | 31.7 | 12.2 | 10.9 | 14.5 | 24.1 | 17.5 | 17.2 | 9.6 | IC50 - T. cruzi ([2]; Table 2): 5.35 µg/mL (≈ 13.6 µM); IC50 (VERO cells): 73.5 µM; IC50 - VERO Cytotoxicity (VERO cells): 29.00 µg/mL (≈ 73.5 µM) |
| C[C@@H]1[C@H](O)[C@@H](C)/C=C/C=C/C=C/C=C/C=C/C=C/C=C/[C@H](O[C@@H]2O[C@H](C)[C@@H](O)[C@H](N)[C@@H]2O)C[C@@H]2O[C@](O)(C[C@@H](O)C[C@@H](O)[C@H](O)CC[C@@H](O)C[C@@H](O)CC(=O)O[C@H]1C)C[C@H](O)[C@H]2C(=O)O [Amphotericin B, reference compound] |  |  |  |  |  |  |  |  |  |  |  |  |  |  |  |  |  |  |  |  | IC50 (peritoneal macrophages): 5.4 µM; IC50 (peritoneal macrophages; 48 h, Table 7, read-out: IC50 Macrophage): 5.3 µM; IC50 (L. peruviana LCA08; infected macrophages): 0.1 µM; IC50 (L. braziliensis PER006; infected macrophages): 0.1 µM; IC50 (L. amazonensis Lma CL1; read-out: IC50 L. amazonensis Lma CL1, infected macrophages, 48 h): 0.4 µM; IC50 [4]: 0.14 µM; IC50 ([4]; read-out: IC50 L. amazonensis, axenic amastigotes, 72 h, Table 7): 0.1 µM; IC50 ([4]; read-out: L. amazonensis IC50, Table 8b): 0.1 µM |
| COc1ccc(/C=C/C(=O)c2c(O)cc(O)cc2OC)cc1 [Compound I-05, (E)-1-(2,4-Dihydroxy-6-methoxyphenyl)-3-(4-methoxyphenyl)-2-propen-1-one] | 166 | 10 | 23 |  |  | 7.66 | 14.3 |  | 5.98 | > 25 | 5 (≈ 16.6 µM) | 68.88% and 38.57% | 6.7 | 17 | 17.3 | 14 | 21.6 | 9 | 19.6 | 19.3 |  |
| C=CCOc1cc(OC)c(C(=O)/C=C/c2ccc(OC)cc2)c(OCC=C)c1 [Compound I-10, (2E)-1-[2-Methoxy-4,6-bis(2-propenyloxy)phenyl]-3-(4-methoxyphenyl)-2-propen-1-one] | 18.7 | 5.5 |  |  |  |  |  | 63.5 | 7.28 | 21.4 | 48 (≈ 126 µM) | 62.86% | 41 | 16.6 | 19.5 | 20 | 28.4 | 21 | 27.6 | 18.1 | IC50 - T. cruzi ([2]; Table 2): 8.14 µg/mL (≈ 21.4 µM); IC50 (VERO cells): 99.9 µM; IC50 - VERO Cytotoxicity (VERO cells): 38.00 µg/mL (≈ 99.9 µM) |
| O=c1[nH]cc(F)c(=O)[nH]1 [Compound 5FU, 5-Fluorouracil, reference compound] |  |  |  |  |  |  |  |  |  |  |  |  | < 1.54 | 16.7 | 6.5 | 4.1 | 8.9 | 15.4 | 22.4 | 14.6 |  |
| COc1cc(O)c(C(=O)/C=C/c2ccc3c(c2)OCO3)c(OC)c1 [Compound I-02, (2E)-3-(1,3-Benzodioxol-5-yl)-1-(2-hydroxy-4,6-dimethoxyphenyl)-2-propen-1-one] |  | > 300 |  |  |  |  |  | 22.8 |  | > 25 |  | 11.77% | 39 | 18.9 | 140 | > 190 | > 190 | > 190 | > 190 | 118 |  |
| COCOc1cc(OC)c(C(=O)/C=C/c2ccc3c(c2)OCO3)c(OCOC)c1 [Compound I-45] | 143 | 11.7 | 34.8 | 4.6 | 92 | 17.2 | 23.9 |  |  |  |  |  |  |  |  |  |  |  |  |  | cutaneous toxicity (L. amazonensis): did not exhibit any cutaneous toxicity; Reduction of parasite burden After 7 weeks (L. amazonensis): 35% |
